Assay results reported in article PMC6321646, “Evaluation of the Novel Synthetic Tyrosinase Inhibitor (Z)-3-(3-bromo-4-hydroxybenzylidene)thiochroman-4-one (MHY1498) In Vitro and In Silico” (Molecules, 2018).

Target: T1, mushroom tyrosinase (Agaricus bisporus, UniProt C7FF04)
T1 construct: gene PPO3
Test: dopachrome formation at […] nm, % inhibition at […]
Type: biochemical
Conditions: read-out: 50μM / Mean ± SD (%)

T1 sequence (C7FF04 2-392): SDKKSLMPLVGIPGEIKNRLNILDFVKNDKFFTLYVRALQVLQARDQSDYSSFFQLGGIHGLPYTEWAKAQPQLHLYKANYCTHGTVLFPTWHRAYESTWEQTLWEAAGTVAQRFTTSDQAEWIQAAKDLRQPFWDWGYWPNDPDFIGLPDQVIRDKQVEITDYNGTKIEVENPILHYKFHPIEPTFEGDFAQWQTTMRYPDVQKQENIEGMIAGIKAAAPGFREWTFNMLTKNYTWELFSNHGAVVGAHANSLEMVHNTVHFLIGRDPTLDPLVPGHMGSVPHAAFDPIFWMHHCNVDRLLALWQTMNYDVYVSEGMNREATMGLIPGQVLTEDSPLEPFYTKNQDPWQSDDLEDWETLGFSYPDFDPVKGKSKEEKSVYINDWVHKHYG

| Compound | inhibition at 50 µM |
| --- | --- |
| O=C1/C(=C/c2ccc(O)cc2)CSc2ccccc21 [a] | 81.6 ± 1% |
| COc1ccc(/C=C2\CSc3ccccc3C2=O)cc1O [d] | 91.5 ± 6.2% |
